# Results published in patent US20240180881A1, “METHODS FOR DECREASING RESISTANCE TO CHEMOTHERAPY” (National Institute of Immunology, priority 2022, published 2024).
# Counter-ions that a name gives are not always drawn. Like-named read-outs stand apart in the source and are kept apart here.
# Biological target: T1, BLM-RAD54 interaction (BLM F2 and N-RAD54 F1) (Homo sapiens, UniProt Q92698)
# T1 construct: expressed in transfected cells; host or cells: HEK293T
# T1 sequence (Q92698 1-212): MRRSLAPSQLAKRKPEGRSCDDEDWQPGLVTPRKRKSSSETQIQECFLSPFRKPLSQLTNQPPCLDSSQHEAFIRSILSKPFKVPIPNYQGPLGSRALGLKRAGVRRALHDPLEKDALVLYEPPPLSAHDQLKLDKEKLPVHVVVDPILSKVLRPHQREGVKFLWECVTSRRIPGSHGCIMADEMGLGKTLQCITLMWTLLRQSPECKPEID
# Experiment: Renilla luciferase-based protein complementation assay (PCA)
# Assay type: cell-based
# Protocol: Specifically, N-RAD54-F1, C-RAD54-F1, BLM-F1 and BLM-F2 were transfected in HEK293T. Forty-eight hours post-transfection, Renilla luciferase-based PCA were carried out with the indicated combination of the expressed proteins. The experiment was repeated three times. Mean±S.D.
# Using the Renilla luciferase-based protein complementation assay described earlier, 1280 FDA/EMA approved small molecules present in Prestwick chemical library were screened for their ability to disrupt BLM-RAD54 interaction. Each of the small molecules was incubated with HEK293T cells expressing BLM-F2 and N-RAD54-F1. Compared to cells expressing only BLM-F2 and N-RAD54-F1, the decrease in Renilla luciferase intensity in presence of each small molecule was monitored. Percentage disruption of the interaction between BLM F2 and N-RAD54 F1 was plotted in form of heatmap. The disruption of the BLM-RAD54 interaction was determined by a decrease in the Renilla luciferase activity as compared to control untreated cells.
# The percentage disruption of the interaction between BLM F2 and N-RAD54 F1 was plotted as a non-linear regression line. The data was from three independent experiments.
# Renilla Luciferase (Rlu) based Protein complementation assay was carried out as described in (Stefan et al., 2007). For preliminary screening of the Prestwick Chemical Library (containing 1280 FDA/EMA approved small molecules), HEK293T cells were seeded in the 6-well plates a day prior to the transfection. Next day the cells were transfected by 2 μg each of pcDNA3.1 N-RAD54 F1, pcDNA3.1 C-RAD54 F1, pcDNA3.1 BLM F1, pcDNA3.1 BLM F2 plasmids (alone or in different combinations) using Lipofectamine 2000 (according to the manufacturer's protocol). 36 hours post-transfection, approximately […] cells were seeded in a 96-well plate and incubated at 37° C. for 2 hour with or without 10 μM of the 1280 small molecules present in the library. 10 μM of Coenleterazine h was added into each well and Rluc activity was monitored for the first 10 seconds in Varioskan Microplate Reader (Thermo Fisher Scientific). The validation screen was performed with 17 small molecules at 100 μM, 10 μM, 1 μM, 100 nM, 10 nM and 1 nM concentrations. The percentage reduction in the protein-protein interaction was then calculated as compared to the control wells (without any small molecule).
# [1] = disruption of BLM F2 / N-RAD54 F1 interaction, HEK293T cells, 1 nM to 100 μM, read-out: EC50
Structure (SMILES),EC50 [1] [µM],EC50 [µM]
"CC(C)CC1C(=O)N2CCC[C@H]2[C@]2(O)O[C@](NC(=O)[C@@H]3C=C4c5cccc6[nH]c(Br)c(c56)C[C@H]4N(C)C3)(C(C)C)C(=O)N12 (stereo partly shown) [C12, Bromocryptine mesylate]",–,0.0414 ± 0.00446
"C[C@]12C=CC(=O)C=C1CC[C@@H]1[C@@H]2C(=O)C[C@@]2(C)[C@H]1CC[C@]2(O)C(=O)CO [C6, Prednisone]",0.00626 ± 0.002,–
"Nc1nc2nn[nH]c2c(=O)[nH]1 [C1, Azaguanine-8]",0.0223 ± 0.00198,–
"Oc1c(Cl)cc(Cl)c2cccnc12 [C16, Chloroxine]",0.0264 ± 0.00228,–

# More lines, main results first:
EC50 [1] [µM],Structure (SMILES),EC50 [µM]
0.00538 ± 0.00217,"COc1ccc(CC2c3cc(OC)c(OC)cc3CC[N+]2(C)CCC(=O)OCCCCCOC(=O)CC[N+]2(C)CCc3cc(OC)c(OC)cc3C2Cc2ccc(OC)c(OC)c2)cc1OC (stereo not shown) [C5, Atracurum besylate]",–
0.0205 ± 0.00261,"Cc1ncc([N+](=O)[O-])n1CCO [C8, Metronidazole]",–
0.00812 ± 0.00389,"CC[C@H]1OC(=O)[C@H](C)[C@@H](O[C@H]2C[C@@](C)(OC)[C@@H](O)[C@H](C)O2)[C@H](C)[C@@H](O[C@@H]2O[C@H](C)C[C@H](N(C)C)[C@H]2O)[C@](C)(O)C[C@@H](C)C(=O)[C@H](C)[C@@H](O)[C@]1(C)O [C15, Erythromycin]",–
